Laboratory results from US5688767A, “Treatment of endotoxin-associated disorders with cationic peptides” (priority 1996, dated 1997).
Values after ≈ are worked out from the molar mass of the structure shown.

Experiments:
[1] = test system: LPS-induced TNF in RAW 264.7 macrophage cells; experiment: Inhibition of LPS-mediated TNF induction in RAW 264.7 macrophages (L929 cytotoxicity readout); type: cell-based, murine; details: for Unit of TNF induced / Unit of TNF induced (% of control): 100 ng purified E. coli 0111:B4 LPS, 20 μg of peptide or polymyxin B; for block of induction of TNF: 20 μg/ml, E. coli 0111:B4 and E. coli Bort LPS; for block of LPS induction of TNF: added up to 60 minutes after LPS
Protocol: The effect of CEME and CEMA peptides on LPS-induced TNF in macrophages was examined. RAW 264.7 macrophage cells were grown by seeding 10^6 cells into a 162 cm^2 cell culture flask and incubated at 37° C., 5% CO2 for 1 week. RAW cell media (Dulbecco's Modified Eagle Medium with Hepes buffer 450 ml; 2.4 mM L-glutamine 3 ml (400 mM); Pen/Strep 3 ml (10^4 U/ml of Pen, 1 mg/ml strep); and 10% heat inactivated fetal bovine serum (FBS) 50 ml) was then completely removed from flasks. 10 mls of cell dissociation solution (Sigma) was added to each flask and incubated at 37° C. for 10 minutes. Cells were removed from flasks, diluted in RAW cell media and centrifuged for 6 minutes. The cell pellet was resuspended in 5 ml of media/flask used. […] cell suspension was removed and added to 400 μl of trypan blue and cells were counted using a hemocytometer. The cell suspension was diluted to 1×10^6cells/ml and 1 ml of suspension was added per well of a 24 well plate. The 24 well plates were incubated at 37° C., 5% CO2 overnight for use in the assay.
After an overnight incubation, the media was aspirated from all the wells. 100 μl of Lipopolysaccharide (LPS) was added at 100 ng/100 μl. CEME or CEMA was added at the desired concentration/100 μl to specified wells. […] The plates were then incubated for six hours at 37° C., 5% CO2. The supernatant was then removed from the wells and stored overnight at 4° C. For those wells in which whole bacteria were added directly to the wells, the supernatant was centrifuged in 0.2 μm filter eppendorf tubes for 5 minutes.
The supernatants were then used in cell cytotoxic L929 assay. The samples were transferred to 96 well plates. 50 μl of TNF media was added to all the wells in all the plates except to those wells in the first row. 10 μl of murine TNF standard (20 ng/ml) and 90 μl of TNF media was added in duplicate to the plate and diluted 1:2 down the plate to the second to last row. Test samples (75 μl), comprising of the supernatants from the RAW cell assays, were added to separate rows in duplicate and diluted 1:3 to the second to last rows.
TNF-sensitive L929 mouse fibroblast cells were grown by seeding 10^6 cells into a 162 cm^2 cell culture flask and left to grow for 1 week. L929 cells were removed from the flask with 10 mls of trypsin-EDTA/flask and incubated 3-5 minutes. Cell suspension was diluted and centrifuged for 6 minutes. The pellet was resuspended in 5 mls of fresh L929 media/flask and counted (same as RAW cells). Cell suspension was diluted to 10^6 cells/ml. 100 μl was used to inoculate each well of the 96 well plates with the supernatants. (L929 Growth Media was the same as RAW cell media except instead of FBS, 50 mls of 10% heat inactivated horse serum was utilized; TNF Assay Media was the same as RAW cell media except 4 μg/ml Actinomycin D was added.)
The plates were incubated at 37° C. at 5% CO2 for 2 days. The media was then aspirated and replaced with 100 μl of the dye MTT (0.5 mg/ml) in modified Eagle Medium without phenol red. The plates were then incubated at 37° C. at 5% CO2 for 3 hours. The dye was then removed and replaced with 100 μl of absolute ethanol. The plates were left at room temperature for 10-15 minutes to dissolve the formazan dye crystals.
The plates were read at 570 nm in a ELISA plate reader with 690 nm reference filter. One unit of TNF activity is defined as the amount required to kill 50% of the L929 cells. The TNF level in Units per ml therefore was the reciprocal of the dilution which led to a 50% killing of L929 cells. […]
The murine cell line RAW 264.7 was obtained from ATCC, (Rockville, Md.), and maintained and passaged as described previously (Kelly, et al., supra). TNF induction experiments with LPS were performed as described by Kelly, et al. (supra) Briefly, Dulbecco's modified Eagle medium was aspirated from RAW 264.7 cell grown overnight in 24 well tissue culture plates after seeding with 10^6 cell per ml per well and replaced with fresh medium. […]

E. cloacae = experiment: microbe, parasite or virus in culture; type: cell-based, Enterobacter cloacae
Protocol: The minimum inhibitory concentrations of (MIC) of CEME, CEMA and melittin were determined for a number of different bacteria (Table 2). Briefly, cells were grown overnight at 37° C. in LB-S (Luria broth without any salt supplement) and diluted one in 10,000 in the same medium to give concentrations of about 10^4 to 10^5 CFU/ml. The broth dilutions were set up in a 96 well microtiter plate by putting 200 μl of LB-S containing the initial concentration of antibiotic or compound in column 1 and 100 μl of the same medium in columns 2-12. The compounds were diluted by taking 100 μl of broth from column 1 and mixing it with column 2, resulting in a one in two dilution. This was continued to column 10. Finally, 10 μl of bacteria were pipetted into columns 1-11, and the plates incubated overnight at 37° C. The next day the plates were scored for growth in the wells, and the MIC determined.
Bacteria included the Bort strain of E. coli (Bortolussi, et al., Inf. Immun., 25:293, 1979) that was originally derived from a case of neonatal meningitis, and which is therefore considered a relevant pathogenic strain to study, and the 0111:B4 strain of E. coli (kindly provided by Dr. D. Morrison) which is a standard source of endotoxin. (Kelly, et al., Inf. Immun., 59:4491, 1991). In addition, P. aeruginosa PA01 strain H103, P. aeruginosa M2, P. aeruginosa K799, Eschericha coli UB 1005, Enterobacter cloacae 218S, Salmonella typhimurium MS7953s, Klebsiella pneumoniae ATCC 13883, Xanthomonas maltophilia ATCC 13637, and Acinetobacter calcoacetious 8193 were employed. LPS was obtained from E. coli Bort by the technique of Westphal and Jann, (Westphal, et al., Acad. Press, Inc. NY., 5:83) and from P. aeruginosa H103 by the method of Darveau and Hancock, (Darveau, et al., J. Bacteriol, 155:831, […]). E. coli 0111:B4 LPS was purchased from Sigma.

[2] = strain 218S, Parent of 218R1 (Table 2)

Molecule	concentration of peptide that efficiently reduces LPS-induced TNF ([1]; 100 ng of E. coli 0111:B4 or E. coli Bort LPS, 6 hour) [µg/mL]	Unit of TNF induced [1] [units/ml]	Unit of TNF induced (% of control) [1] [%]	reduction of TNF induction ([1]; 2 μg/ml of peptide, E. coli 0111:B4 LPS 100 ng/ml)	block of induction of TNF [1]	blockage of TNF induction, in words ([1]; 20-50 μg/ml of peptides, E. coli 0111:B4 LPS 100 ng/ml)	TNF produced by peptide alone ([1]; CEMA (20 μg) alone, no LPS) [units/ml]	block of LPS induction of TNF [1] [%]	MIC (E. cloacae; Enterobacter cloacae 218S (Table 9)) [µg/mL]	MIC (E. cloacae; strain 218R1, β-lactam resistant) [µg/mL]	MIC (E. cloacae; [2]) [µg/mL]
CC[C@H](C)[C@H](NC(=O)CNC(=O)[C@@H](NC(=O)[C@H](CCCCN)NC(=O)[C@H](CCCCN)NC(=O)[C@H](Cc1ccccc1)NC(=O)[C@H](CC(C)C)NC(=O)[C@H](CCCCN)NC(=O)[C@H](Cc1c[nH]c2ccccc12)NC(=O)[C@@H](N)CCCCN)[C@@H](C)CC)C(=O)NCC(=O)N[C@@H](C)C(=O)N[C@H](C(=O)N[C@@H](CC(C)C)C(=O)N[C@@H](CCCCN)C(=O)N[C@H](C(=O)N[C@@H](CC(C)C)C(=O)N[C@H](C(=O)N[C@H](C(=O)NCC(=O)N[C@@H](CC(C)C)C(=O)N1CCC[C@H]1C(=O)N[C@@H](C)C(=O)N[C@@H](CC(C)C)C(=O)N[C@@H](CCCCN)C(=O)N[C@@H](CC(C)C)C(=O)N[C@H](C(=O)N[C@@H](CCCCN)C(=O)O)[C@@H](C)O)[C@@H](C)O)[C@@H](C)O)C(C)C)C(C)C [CEMA]	≤ 5	566 ± 69	5.8	more than 50%	approximately 100%	almost complete blockage	50 ± 3	99	4 (≈ 1.3 µM)	1.4 (≈ 0.457 µM)	2.8 (≈ 0.913 µM)
polymyxin B		573 ± 4	5.8		approximately 100%			81			0.5
